US20120178666A1 (SHIRE LLC, priority 2009, published 2012)

Key:
[1] = Prodrug stability in simulated intestinal fluid (USP); conditions: 37° C.
Method: (§1) The remaining concentrations of the prodrugs were then assayed by HPLC.

[2] = Prodrug stability in simulated gastric fluid (USP); conditions: 37° C.
Method: as §1

| Structure (SMILES) | % prodrug remaining following incubation for: 2 h in simulated intestinal fluid pH 6.8 [1] [%] | % prodrug remaining following incubation for: 1 h in simulated gastric fluid pH 1.1 [2] [%] |
| --- | --- | --- |
| CC(C)[C@H](N)C(=O)NCCOC(=O)NC(=N)NC(=O)Cc1c(Cl)cccc1Cl [Compound 26, Guanfacine ethanolamine-(S)-Valine Carbamate] | 91 | 97 |
| CN1CC(=O)N=C1NC(=O)Cc1c(Cl)cccc1Cl [Compound 12, Cyclised Guanfacine Sarcosine Amide] | 87 | 48 |
| CC(C)C[C@@H](N)C(=O)N[C@@H](CCC(=O)NC(=N)NC(=O)Cc1c(Cl)cccc1Cl)C(=O)O [Compound 42, (R)-Leucine-(S)-γ-Glutamate(Guanfacine) Amide] | 83 | 70 |
| N=C(NC(=O)Cc1c(Cl)cccc1Cl)NC(=O)OCC[C@H](N)C(=O)O [Compound 65, (S)-Homoserine Guanfacine Carbamate] | 99 | 90 |
| N=C(NC(=O)CC[C@H](NC(=O)[C@H](N)CCCCN)C(=O)O)NC(=O)Cc1c(Cl)cccc1Cl [Compound 43, Guanfacine-(S)-γ-Glutamate-(R)-Lysine Amide] | 85 | 62 |
| N=C(NC(=O)CC[C@H](NC(=O)c1ccc(N)cc1)C(=O)O)NC(=O)Cc1c(Cl)cccc1Cl [Compound 70, Guanfacine PABA-(S)-Glutamate (Guanfacine) Amide] | 93 | 64 |
| CC(C)[C@@H]1N=C(NC(=O)Cc2c(Cl)cccc2Cl)NC1=O [Compound 35, Guanfacine-(S)-Valine Cyclic adduct] | – | 83 |
| CC(C)[C@@H](N)C(=O)N[C@H](C(=O)O)[C@@H](C)OC(=O)NC(=N)NC(=O)Cc1c(Cl)cccc1Cl [Compound 21, (R)-Valine-(S)-Threonine(Guanfacine) Carbamate] | – | 83 |
| CC(C)[C@@H](N)C(=O)NCCCC(=O)NC(=N)NC(=O)Cc1c(Cl)cccc1Cl [Compound 22, (R)-Valine aminobutanoyl Guanfacine Amide] | 85 | – |
| CC(C)[C@@H](N)C(=O)N[C@H](CCC(=O)NC(=N)NC(=O)Cc1c(Cl)cccc1Cl)C(=O)O [Compound 31, (R)-Valine-(R)-γ-Glutamate(Guanfacine) Amide] | 85 | 70 |
| O=C(O)CC1N=C(NC(=O)Cc2c(Cl)cccc2Cl)NC1=O (stereo not shown) [Compound 4, Guanfacine fumaryl Cyclic adduct] | 84 | 97 |
| N=C(NC(=O)Cc1c(Cl)cccc1Cl)NC(=O)O[C@@H]1CN[C@H](C(=O)O)C1 [Compound 14, (S)-4-Hydroxyproline-(Guanfacine) Carbamate] | – | 70 |
| N=C(NC(=O)CC[C@H](NC(=O)c1ccc(C(=O)O)cc1)C(=O)O)NC(=O)Cc1c(Cl)cccc1Cl [Compound 60, Terephthalic acid-(S)-γ-Glutamate(Guanfacine) Amide] | 97 | 81 |
| N=C(NC(=O)Cc1c(Cl)cccc1Cl)NC(=O)OCC[C@H](NC(=O)CCN)C(=O)O [Compound 67, β-Alanine-(S)-Homoserine (Guanfacine) Carbamate] | 97 | 99 |
| CC(C)(CO)[C@@H](O)C(=O)NCCCOC(=O)NC(=N)NC(=O)Cc1c(Cl)cccc1Cl [Compound 69, Guanfacine Panthenol Carbamate] | 96 | 85 |
| CC(C)[C@@H](N)C(=O)NCCOC(=O)NC(=N)NC(=O)Cc1c(Cl)cccc1Cl [Compound 27, Guanfacine (ethanolamine-(R)-Valine) Carbamate] | – | 78 |
| N=C(NC(=O)Cc1c(Cl)cccc1Cl)NC(=O)OC[C@H](NC(=O)CCN)C(=O)O [Compound 64, β-Alanine-(S)-Serine (Guanfacine) Carbamate] | 93 | 88 |
| CC(C)[C@H](N)C(=O)N[C@H](C(=O)O)[C@@H](C)OC(=O)NC(=N)NC(=O)Cc1c(Cl)cccc1Cl [Compound 20, (S)-Valine-(S)-Threonine(Guanfacine) Carbamate] | 100 | 79 |

| Structure (SMILES) | % prodrug remaining following incubation for: 2 h in simulated intestinal fluid pH 6.8 [1] [%] | % prodrug remaining following incubation for: 1 h in simulated gastric fluid pH 1.1 [2] [%] |
| --- | --- | --- |
| N=C(NC(=O)Cc1c(Cl)cccc1Cl)NC(=O)OCCNC(=O)CC[C@H](N)C(=O)O [Compound 58, Guanfacine (ethanolamine-(S)-γ-Glutamate) Carbamate] | 99 | 96 |
| C[C@@H]1N=C(NC(=O)Cc2c(Cl)cccc2Cl)NC1=O [Compound 39, Guanfacine-(S)-Alanine Cyclic adduct] | – | 89 |
| CC[C@H](C)[C@H](N)C(=O)NCCOC(=O)NC(=N)NC(=O)Cc1c(Cl)cccc1Cl [Compound 59, Guanfacine (ethanolamine-(S)-Isoleucine) Carbamate] | 100 | 92 |
| CNCC(=O)NCCOC(=O)NC(=N)NC(=O)Cc1c(Cl)cccc1Cl [Compound 71, Guanfacine ethanolamine-Sarcosine Carbamate] | 89 | 91 |
| CC(=O)N[C@@H](COC(=O)NC(=N)NC(=O)Cc1c(Cl)cccc1Cl)C(=O)O [Compound 15, Acetyl-(S)-Serine (Guanfacine) Carbamate] | – | 83 |
| N=C(NC(=O)Cc1c(Cl)cccc1Cl)NC(=O)NC(C(=O)O)c1ccccc1 (stereo not shown) [Compound 8, Guanfacine Phenylglycine Urea] | 100 | 96 |
| CC(C)[C@@H](N)C(=O)N[C@@H](COC(=O)NC(=N)NC(=O)Cc1c(Cl)cccc1Cl)C(=O)O [Compound 18, (R)-Valine-(S)-Serine(Guanfacine) Carbamate] | – | 74 |
| C[C@@H](OC(=O)NC(=N)NC(=O)Cc1c(Cl)cccc1Cl)[C@H](NC(=O)[C@@H]1CCC(=O)N1)C(=O)O [Compound 19, (S)-Pyroglutamic acid-(S)-Threonine(Guanfacine) Carbamate] | – | 92 |
| CSCC[C@@H](N)C(=O)N[C@@H](CCC(=O)NC(=N)NC(=O)Cc1c(Cl)cccc1Cl)C(=O)O [Compound 44, (R)-Methionine-(S)-γ-Glutamate(Guanfacine) Amide] | 85 | 75 |
| CC(C)[C@@H](N)C(=O)N[C@@H](C(=O)NC(=N)NC(=O)Cc1c(Cl)cccc1Cl)C(C)C [Compound 54, Guanfacine (R)-Valine-(R)-Valine Amide] | 66 | 73 |
| CNCC(=O)N[C@@H](CCOC(=O)NC(=N)NC(=O)Cc1c(Cl)cccc1Cl)C(=O)O [Compound 66, Sarcosine-(S)-Homoserine (Guanfacine) Carbamate] | – | 86 |
| CC(C)[C@H](N)C(=O)NCCCC(=O)NC(=N)NC(=O)Cc1c(Cl)cccc1Cl [Compound 56, Guanfacine (GABA-(S)-Valine) Amide] | – | 70 |
| NCCCC[C@@H]1N=C(NC(=O)Cc2c(Cl)cccc2Cl)NC1=O [Compound 36, Guanfacine-(S)-Lysine Cyclic adduct] | – | 83 |
| N=C(NC(=O)CCCNC(=O)CC[C@H](N)C(=O)O)NC(=O)Cc1c(Cl)cccc1Cl [Compound 57, Guanfacine (GABA-(S)-Glutamate) Amide] | – | 81 |
| N=C(NC(=O)CCNC(=O)[C@@H]1CCC(=O)N1)NC(=O)Cc1c(Cl)cccc1Cl [Compound 10, Guanfacine B-Alanine-(S)-Pyroglutamic acid Amide] | – | 82 |
| N=C(NC(=O)Cc1c(Cl)cccc1Cl)NC(=O)OCCNC(=O)CN [Compound 49, Guanfacine (ethanolamine Glycine) Carbamate] | – | 87 |
| N=C(NC(=O)Cc1c(Cl)cccc1Cl)NC(=O)Nc1ccc(C(=O)O)cc1 [Compound 53, Guanfacine PABA Urea] | 100 | – |
| C[C@H]1N=C(NC(=O)Cc2c(Cl)cccc2Cl)NC1=O [Compound 51, Guanfacine-(R)-Alanine Cyclic adduct] | – | 80 |
